Assays:
[1] = system: SW480; experiment: Antiproliferative activity against human SW480 cells after 48 hrs by MTT assay; format: functional, cell-based; conditions: SW480, 48 h
[2] = system: A549; experiment: Antiproliferative activity against human A549 cells after 48 hrs by MTT assay; format: functional, cell-based; conditions: A549, 48 h
[3] = system: MCF7; experiment: Antiproliferative activity against human MCF7 cells after 48 hrs by MTT assay; format: functional, cell-based; conditions: MCF7, 48 h
[4] = system: A549; experiment: Induction of apoptosis in human A549 cells assessed as late apoptotic cells at after 48 hrs by annexin V-FITC and propidium iodide staining-based flow cytometry (reference value: 2.87 %); format: functional
[5] = system: MCF7; experiment: Cell cycle arrest in human MCF7 cells assessed as accumulation at G2/M phase at 5 uM after 48 hrs by flow cytometry (Rvb =15.78 %); format: functional
[6] = system: A549; experiment: Induction of apoptosis in human A549 cells assessed as late necrotic cells at after 48 hrs by annexin V-FITC and propidium iodide staining-based flow cytometry (reference value: 0.920 %); format: functional
[7] = system: MCF7; experiment: Cell cycle arrest in human MCF7 cells assessed as accumulation at G1 phase at 5 uM after 48 hrs by flow cytometry (Rvb =52.82 %); format: functional
[8] = system: MCF7; experiment: Cell cycle arrest in human MCF7 cells assessed as accumulation at S phase at 5 uM after 48 hrs by flow cytometry (Rvb =31.40 %); format: functional
[9] = system: A549; experiment: Induction of apoptosis in human A549 cells assessed as viable cells at after 48 hrs by annexin V-FITC and propidium iodide staining-based flow cytometry (reference value: 95.5 %); format: functional
[10] = system: A549; experiment: Induction of apoptosis in human A549 cells assessed as early apoptotic cells at after 48 hrs by annexin V-FITC and propidium iodide staining-based flow cytometry (reference value: 0.720 %); format: functional

Structure (SMILES)	IC50 [1] [µM]	IC50 [2] [µM]	IC50 [3] [µM]	further results
O=c1cc(-n2cc(CNc3ccccc3)nn2)c2cc(Br)ccc2o1	18.4	13.2	> 50	
O=c1cc(-n2cc(CSc3ccccc3)nn2)c2cc(Br)ccc2o1	15.4	3.51	36.8	
O=c1cc(-n2cc(COc3cccnc3)nn2)c2cc(Br)ccc2o1	39.8	24.8	39.8	
O=c1cc(-n2cc(COc3ccnc4ccc(Br)cc34)nn2)c2cc(Br)ccc2o1	16.9	13.3	41.6	
COC(=O)c1ccccc1OCc1cn(-c2cc(=O)oc3ccc(Br)cc23)nn1	20.2	5.25	34.1	
O=c1cc(-n2cc(COc3ccccc3Br)nn2)c2cc(Br)ccc2o1	20.1	8.43	28.9	
O=c1cc(-n2cc(COc3ccccc3O)nn2)c2cc(Br)ccc2o1	19.1	7.94	24.8	
CCc1ccc(OCc2cn(-c3cc(=O)oc4ccc(Br)cc34)nn2)cc1	10.8	11.6	12.7	
O=c1cc(-n2cc(COc3ccccc3)nn2)c2cc(O)ccc2o1	> 50	> 50	> 50	
O=c1cc(-n2cc(COc3ccccc3)nn2)c2cc(OCCN3CCOCC3)ccc2o1	> 50	> 50	> 50	
O=c1cc(-n2cc(COc3ccccc3)nn2)c2ccc(OS(=O)(=O)c3ccc(F)cc3)cc2o1	> 50	> 50	> 50	
CS(=O)(=O)Oc1ccc2c(-n3cc(COc4ccccc4)nn3)cc(=O)oc2c1	10.7	9.14	45.8	
O=c1cc(N2CCN(Cc3ccc(F)cc3)CC2)c2ccccc2o1	> 50	> 50	> 50	
O=c1cc(N2CCN(Cc3ccccc3)CC2)c2ccccc2o1	> 50	> 50	> 50	
O=c1cc(N2CCN(Cc3cccc(O)c3)CC2)c2ccccc2o1	> 50	> 50	> 50	
COc1ccc(CN2CCN(c3cc(=O)oc4ccccc34)CC2)cc1	> 50	> 50	> 50	
COc1cc(CN2CCN(c3cc(=O)oc4ccccc34)CC2)ccc1O	> 50	> 50	> 50	
COc1ccc(CN2CCN(c3cc(=O)oc4ccccc34)CC2)cc1OC	> 50	> 50	> 50	
O=c1cc(N2CCN(Cc3ccccc3O)CC2)c2ccccc2o1	> 50	> 50	> 50	
COc1ccc(OCCN2CCN(c3cc(=O)oc4ccccc34)CC2)cc1	35	21.6	24.2	
O=c1cc(N2CCN(CCOc3ccc(F)cc3)CC2)c2ccccc2o1	24	11.9	> 50	
O=[N+]([O-])c1cnc2ccc(Br)cc2c1-n1cc(CSc2ccccc2)nn1			22.7	
CCOC(=O)c1ccc(OCc2cn(-c3c([N+](=O)[O-])cnc4ccc(Br)cc34)nn2)cc1			13.9	

Now those with a lower IC50 [3], led by results:

IC50 [1] [µM]	IC50 [2] [µM]	IC50 [3] [µM]	Structure (SMILES)	further results
3.09	1.62	11.4	O=c1cc(-n2cc(COc3ccc(C(F)(F)F)cc3)nn2)c2cc(Br)ccc2o1	
6.66	11.2	9.45	O=c1cc(-n2cc(-c3ccccc3)nn2)c2cc(Br)ccc2o1	
25.9	3.15	8.56	COc1ccc2oc(=O)cc(-n3cc(COc4ccc(F)cc4)nn3)c2c1	
		7.69	O=[N+]([O-])c1cnc2ccc(Br)cc2c1-n1cc(COc2ccccc2)nn1	
1.77	0.85	7	O=c1cc(-n2cc(COc3ccc(F)cc3)nn2)c2cc(Br)ccc2o1	
1.99	0.52	5.89	COc1ccc2c(-n3cc(COc4ccc(F)cc4)nn3)cc(=O)oc2c1	Activity [4]: 15.9%; Activity [5]: 84.21%; Activity [6]: 12.3%; Activity [7]: 3.06%; Activity [8]: 12.73%; Activity [9]: 52.3%; Activity [10]: 19.5%
3.82	0.68	5.84	O=c1cc(-n2cc(COc3ccc(F)cc3)nn2)c2ccccc2o1	
2.72	2.01	4.62	O=c1cc(-n2cc(COc3ccc(F)cc3)nn2)c2cc(O)ccc2o1	
2.43	1.65	3.51	COc1cccc2c1C(=O)c1c(O)c3c(c(O)c1C2=O)C[C@@](O)(C(=O)CO)C[C@@H]3O[C@H]1C[C@H](N)[C@H](O)[C@H](C)O1 [DOXORUBICIN]	
3.62	0.66	3.13	COC(=O)c1ccc(OCc2cn(-c3cc(=O)oc4ccc(Br)cc34)nn2)cc1	
2.09	11.8	2.04	Nc1ccc(OCc2cn(-c3cc(=O)oc4ccc(Br)cc34)nn2)cc1	
1.31	24.5	1.92	O=c1cc(-n2cc(COc3ccc(Br)cc3)nn2)c2cc(Br)ccc2o1	
4.99	12.3	1.72	O=c1cc(-n2cc(COc3ccccc3)nn2)c2cc(Br)ccc2o1	
